In PMC10035947, “Development of novel anilinoquinazoline-based carboxylic acids as non-classical carbonic anhydrase IX and XII inhibitors” (Journal of Enzyme Inhibition and Medicinal Chemistry, 2023):

Experiments:
hCA I = target: T1, hCA I (Homo sapiens, UniProt P00915); experiment: stopped flow CO2 hydrase assay; format: biochemical; conditions: mean from 3 assays
T1 construct: made in house
Procedure, shortened: (§1)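 Recombinant enzymes assayed by stopped-flow CO2 hydration using 0.2 mM phenol red at 557 nm in 20 mM Hepes pH 7.5 with 20 mM Na2SO4, CO2 1.7–17 mM. Inhibitor and enzyme preincubated 15 min at room temperature.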

hCA IX = target: T2, hCA IX (Homo sapiens, UniProt Q16790); experiment: stopped flow CO2 hydrase assay; format: biochemical; conditions: for Selectivity ratio I/IX: KI hCA I / KI hCA IX; for Selectivity ratio II/IX: KI hCA II / KI hCA IX; for Ki: mean from 3 assays
T2 construct: made in house
Procedure, shortened: as §1

hCA XII = target: T3, hCA XII (Homo sapiens, UniProt O43570); experiment: stopped flow CO2 hydrase assay; format: biochemical; conditions: for Selectivity ratio I/XII: KI hCA I / KI hCA XII; for Selectivity ratio II/XII: KI hCA II / KI hCA XII; for Ki: mean from 3 assays
T3 construct: made in house
T3 sequence (O43570 25-354): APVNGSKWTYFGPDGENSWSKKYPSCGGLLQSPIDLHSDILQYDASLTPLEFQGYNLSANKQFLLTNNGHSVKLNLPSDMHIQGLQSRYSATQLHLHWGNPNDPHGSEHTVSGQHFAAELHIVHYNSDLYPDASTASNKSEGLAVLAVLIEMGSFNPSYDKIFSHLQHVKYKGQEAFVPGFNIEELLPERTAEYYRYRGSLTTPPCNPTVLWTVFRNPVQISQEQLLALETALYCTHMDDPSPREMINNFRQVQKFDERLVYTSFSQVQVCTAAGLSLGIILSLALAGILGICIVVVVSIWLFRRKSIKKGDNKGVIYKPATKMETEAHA
Procedure, shortened: as §1

CCRF-CEM = experiment: NCI SRB assay; format: cell-based, human; conditions: for GI%: 10 μM; for Growth Percent: 1.00E-5 Molar
RPMI-8226 = experiment: NCI SRB assay; format: cell-based, human; conditions: for GI%: RPMI-8226, 10 μM; for Growth Percent: RPMI-8226, 1.00E-5 Molar
A549/ATCC = experiment: NCI SRB assay; format: cell-based, human; conditions: A549/ATCC; for GI%: 10 μM; for Growth Percent: 1.00E-5 Molar
HOP-92 = experiment: NCI SRB assay; format: cell-based, human; conditions: for GI%: HOP-92, 10 μM; for Growth Percent: HOP-92, 1.00E-5 Molar
NCI-H322M = experiment: NCI SRB assay; format: cell-based, human; conditions: for GI%: 10 μM; for Growth Percent: 1.00E-5 Molar
COLO 205 = experiment: NCI SRB assay; format: cell-based, human; conditions: for GI%: COLO 205, 10 μM; for Growth Percent: COLO 205, 1.00E-5 Molar
HCC-2998 = experiment: NCI SRB assay; format: cell-based, human; conditions: for GI%: HCC-2998, 10 μM; for Growth Percent: HCC-2998, 1.00E-5 Molar
HCT-116 = experiment: NCI SRB assay; format: cell-based, human; conditions: for GI%: HCT-116, 10 μM; for Growth Percent: HCT-116, 1.00E-5 Molar
HCT-15 = experiment: NCI SRB assay; format: cell-based, human; conditions: for GI%: HCT-15, 10 μM; for Growth Percent: HCT-15, 1.00E-5 Molar
HT29 = experiment: NCI SRB assay; format: cell-based, human; conditions: for GI%: HT29, 10 μM; for Growth Percent: HT29, 1.00E-5 Molar
MALME-3M = experiment: NCI SRB assay; format: cell-based, human; conditions: for GI%: 10 μM; for Growth Percent: 1.00E-5 Molar
SK-MEL-5 = experiment: NCI SRB assay; format: cell-based, human; conditions: for GI%: SK-MEL-5, 10 μM; for Growth Percent: SK-MEL-5, 1.00E-5 Molar
UACC-257 = experiment: NCI SRB assay; format: cell-based, human; conditions: for GI%: UACC-257, 10 μM; for Growth Percent: UACC-257, 1.00E-5 Molar
OVCAR-4 = experiment: NCI SRB assay; format: cell-based, human; conditions: for GI%: OVCAR-4, 10 μM; for Growth Percent: OVCAR-4, 1.00E-5 Molar
OVCAR-8 = experiment: NCI SRB assay; format: cell-based, human; conditions: for GI%: OVCAR-8, 10 μM; for Growth Percent: OVCAR-8, 1.00E-5 Molar
NCI/ADR-RES = experiment: NCI SRB assay; format: cell-based, human; conditions: for GI%: 10 μM; for Growth Percent: 1.00E-5 Molar
SK-OV-3 = experiment: NCI SRB assay; format: cell-based, human; conditions: for GI%: SK-OV-3, 10 μM; for Growth Percent: SK-OV-3, 1.00E-5 Molar
PC-3 = experiment: NCI SRB assay; format: cell-based, human; conditions: for GI%: PC-3, 10 μM; for Growth Percent: PC-3, 1.00E-5 Molar
DU-145 = experiment: NCI SRB assay; format: cell-based, human; conditions: for GI%: DU-145, 10 μM; for Growth Percent: DU-145, 1.00E-5 Molar
MCF7 = experiment: NCI SRB assay; format: cell-based, human; conditions: for GI%: MCF7, 10 μM; for Growth Percent: MCF7, 1.00E-5 Molar
HS 578 T = experiment: NCI SRB assay; format: cell-based, human; conditions: for GI%: HS 578 T, 10 μM; for Growth Percent: HS 578T, 1.00E-5 Molar
BT-549 = experiment: NCI SRB assay; format: cell-based, human; conditions: for GI%: BT-549, 10 μM; for Growth Percent: BT-549, 1.00E-5 Molar
T-47D = experiment: NCI SRB assay; format: cell-based, human; conditions: for GI%: 10 μM; for Growth Percent: 1.00E-5 Molar
MDA-MB-468 = experiment: NCI SRB assay; format: cell-based, human; conditions: for GI%: MDA-MB-468, 10 μM; for Growth Percent: MDA-MB-468, 1.00E-5 Molar

T1 sequence (P00915 whole entry): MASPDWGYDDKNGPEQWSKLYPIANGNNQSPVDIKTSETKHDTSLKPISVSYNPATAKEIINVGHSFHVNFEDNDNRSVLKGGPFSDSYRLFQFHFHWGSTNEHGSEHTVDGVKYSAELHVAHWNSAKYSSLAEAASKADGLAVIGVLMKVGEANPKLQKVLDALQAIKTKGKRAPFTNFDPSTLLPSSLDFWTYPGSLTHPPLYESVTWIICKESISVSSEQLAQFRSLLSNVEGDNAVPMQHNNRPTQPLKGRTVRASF

## Cc1cccc(-c2nc(Nc3ccccc3C(=O)O)c3ccccc3n2)c1 [6a, 2-((2-(m-Tolyl)quinazolin-4-yl)amino)benzoic acid]
hCA I
  Ki: > 100 µM
hCA IX
  Selectivity ratio I/IX: 2.4
  Selectivity ratio II/IX: 2.00
  Ki: 42.5 µM
hCA XII
  Selectivity ratio I/XII: 11.1
  Selectivity ratio II/XII: 9.47
  Ki: 9 µM
CCRF-CEM
  GI%: 82%
  Growth Percent: 17.83%
RPMI-8226
  GI%: 71%
  Growth Percent: 28.59%
A549/ATCC
  GI%: 56%
  Growth Percent: 43.63%
HOP-92
  GI%: 105%
  Growth Percent: -5.02%
NCI-H322M
  GI%: 52%
  Growth Percent: 48.74%
COLO 205
  GI%: – (Only GI% higher than 20% are shown)
  Growth Percent: 120.57%
HCC-2998
  GI%: 73%
  Growth Percent: 27.10%
HCT-116
  GI%: 78%
  Growth Percent: 22.67%
HCT-15
  GI%: 86%
  Growth Percent: 14.29%
HT29
  GI%: 60%
  Growth Percent: 39.66%
MALME-3M
  GI%: 63%
  Growth Percent: 37.17%
SK-MEL-5
  GI%: 94%
  Growth Percent: 6.01%
UACC-257
  GI%: 51%
  Growth Percent: 49.24%
OVCAR-4
  GI%: 58%
  Growth Percent: 41.88%
OVCAR-8
  GI%: 40%
  Growth Percent: 60.34%
NCI/ADR-RES
  GI%: 75%
  Growth Percent: 24.78%
SK-OV-3
  GI%: 24%
  Growth Percent: 76.74%
PC-3
  GI%: 71%
  Growth Percent: 29.47%
DU-145
  GI%: 50%
  Growth Percent: 50.47%
MCF7
  GI%: 76%
  Growth Percent: 23.97%
HS 578 T
  GI%: 84%
  Growth Percent: 16.61%
BT-549
  GI%: 100%
  Growth Percent: -0.68%
T-47D
  GI%: 73%
  Growth Percent: 26.79%
MDA-MB-468
  GI%: 115%
  Growth Percent: -15.06%

## Cc1cccc(-c2nc(Nc3ccc(C(=O)O)cc3)c3ccccc3n2)c1 [8a, 4-((2-(m-Tolyl)quinazolin-4-yl)amino)benzoic acid]
hCA I
  Ki: 87.7 µM
hCA IX
  Selectivity ratio I/IX: 20.4
  Selectivity ratio II/IX: 2.16
  Ki: 4.3 µM
hCA XII
  Selectivity ratio I/XII: 23.1
  Selectivity ratio II/XII: 2.45
  Ki: 3.8 µM
CCRF-CEM
  GI%: 25%
  Growth Percent: 74.58%
RPMI-8226
  GI%: 30%
  Growth Percent: 70.27%
A549/ATCC
  GI%: 22%
  Growth Percent: 78.30%
HOP-92
  GI%: 29%
  Growth Percent: 71.13%
NCI-H322M
  GI%: – (Only GI% higher than 20% are shown)
  Growth Percent: 103.28%
COLO 205
  GI%: – (Only GI% higher than 20% are shown)
  Growth Percent: 135.98%
HCC-2998
  GI%: 24%
  Growth Percent: 75.96%
HCT-116
  GI%: – (Only GI% higher than 20% are shown)
  Growth Percent: 81.80%
HCT-15
  GI%: 29%
  Growth Percent: 70.54%
HT29
  GI%: – (Only GI% higher than 20% are shown)
  Growth Percent: 91.72%
MALME-3M
  GI%: – (Only GI% higher than 20% are shown)
  Growth Percent: 110.61%
SK-MEL-5
  GI%: 29%
  Growth Percent: 71.03%
UACC-257
  GI%: – (Only GI% higher than 20% are shown)
  Growth Percent: 101.78%
OVCAR-4
  GI%: – (Only GI% higher than 20% are shown)
  Growth Percent: 83.42%
OVCAR-8
  GI%: – (Only GI% higher than 20% are shown)
  Growth Percent: 82.44%
NCI/ADR-RES
  GI%: – (Only GI% higher than 20% are shown)
  Growth Percent: 84.58%
SK-OV-3
  GI%: – (Only GI% higher than 20% are shown)
  Growth Percent: 108.70%
PC-3
  GI%: – (Only GI% higher than 20% are shown)
  Growth Percent: 83.31%
DU-145
  GI%: – (Only GI% higher than 20% are shown)
  Growth Percent: 87.83%
MCF7
  GI%: – (Only GI% higher than 20% are shown)
  Growth Percent: 88.63%
HS 578 T
  GI%: 48%
  Growth Percent: 51.51%
BT-549
  GI%: 34%
  Growth Percent: 66.04%
T-47D
  GI%: 22%
  Growth Percent: 77.59%
MDA-MB-468
  GI%: – (Only GI% higher than 20% are shown)
  Growth Percent: 113.23%

## COc1ccc(-c2nc(Nc3ccccc3C(=O)O)c3ccccc3n2)cc1 [6c, 2-((2–(4-Methoxyphenyl)quinazolin-4-yl)amino)benzoic acid]
hCA I
  Ki: > 100 µM
hCA IX
  Selectivity ratio II/IX: 1.79
  Ki: 46.4 µM
hCA XII
  Selectivity ratio I/XII: 11.2
  Selectivity ratio II/XII: 9.34
  Ki: 8.9 µM
CCRF-CEM
  GI%: 58%
  Growth Percent: 42.05%
RPMI-8226
  GI%: 80%
  Growth Percent: 20.19%
A549/ATCC
  GI%: 60%
  Growth Percent: 39.61%
HOP-92
  GI%: 78%
  Growth Percent: 21.82%
NCI-H322M
  GI%: 24%
  Growth Percent: 75.73%
COLO 205
  GI%: – (Only GI% higher than 20% are shown)
  Growth Percent: 81.88%
HCC-2998
  GI%: 38%
  Growth Percent: 62.09%
HCT-116
  GI%: 62%
  Growth Percent: 37.54%
HCT-15
  GI%: 61%
  Growth Percent: 39.33%
HT29
  GI%: 37%
  Growth Percent: 63.13%
MALME-3M
  GI%: 31%
  Growth Percent: 68.60%
SK-MEL-5
  GI%: 70%
  Growth Percent: 30.49%
UACC-257
  GI%: 28%
  Growth Percent: 72.03%
OVCAR-4
  GI%: 66%
  Growth Percent: 34.25%
OVCAR-8
  GI%: 40%
  Growth Percent: 60.14%
NCI/ADR-RES
  GI%: 46%
  Growth Percent: 54.40%
SK-OV-3
  GI%: 53%
  Growth Percent: 47.19%
PC-3
  GI%: 60%
  Growth Percent: 40.04%
DU-145
  GI%: 43%
  Growth Percent: 56.86%
MCF7
  GI%: 49%
  Growth Percent: 51.24%
HS 578 T
  GI%: 72%
  Growth Percent: 28.05%
BT-549
  GI%: 62%
  Growth Percent: 37.53%
T-47D
  GI%: 71%
  Growth Percent: 29.31%
MDA-MB-468
  GI%: 57%
  Growth Percent: 42.97%
